Results on 20 compounds are retold here after patent US9598424B2 (Takeda Pharmaceutical Company Limited, priority 2014, dated 2017).

In experiment [1] the target is T1, Full length human TBK1 (Homo sapiens, UniProt Q9UHD2).
T1 construct: Full length human TBK1 with an N-terminal His-tag; His-tag (N); made in house; host or cells: Sf9 insect cells (baculovirus, pFastBac1)
T1 sequence (Q9UHD2 1-729): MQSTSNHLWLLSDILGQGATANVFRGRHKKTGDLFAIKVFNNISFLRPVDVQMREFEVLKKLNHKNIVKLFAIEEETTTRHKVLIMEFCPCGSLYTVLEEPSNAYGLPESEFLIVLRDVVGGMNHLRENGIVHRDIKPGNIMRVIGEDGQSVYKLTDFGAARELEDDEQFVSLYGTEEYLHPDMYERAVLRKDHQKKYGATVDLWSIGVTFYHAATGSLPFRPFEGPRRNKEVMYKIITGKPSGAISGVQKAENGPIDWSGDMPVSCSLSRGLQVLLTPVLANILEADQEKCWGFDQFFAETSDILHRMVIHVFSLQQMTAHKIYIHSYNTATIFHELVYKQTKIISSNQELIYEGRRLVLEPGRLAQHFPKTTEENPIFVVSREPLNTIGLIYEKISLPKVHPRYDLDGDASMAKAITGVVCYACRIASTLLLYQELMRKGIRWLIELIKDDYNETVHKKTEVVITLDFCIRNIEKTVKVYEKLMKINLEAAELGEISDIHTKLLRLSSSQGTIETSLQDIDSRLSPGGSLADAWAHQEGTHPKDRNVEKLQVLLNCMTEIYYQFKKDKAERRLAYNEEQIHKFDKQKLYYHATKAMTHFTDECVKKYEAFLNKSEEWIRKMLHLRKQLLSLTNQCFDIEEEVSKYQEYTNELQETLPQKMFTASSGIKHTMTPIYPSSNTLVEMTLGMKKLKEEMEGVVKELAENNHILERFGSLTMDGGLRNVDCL
The experiment is described as follows: Inhibition of TBK1 Enzyme (Caliper microfluidic assay). Particulars: 25 μM ATP, 60 min at RT; -log(IC50), IC50 molar; read-out: TBK1 Inhibition (pIC50) (converted). It is filed as biochemical. The method, then: Full length human TBK1 with an N-terminal His-tag was cloned into the pFastBacl vector and was transfected into Sf9 cells. 72 hours later the virus was harvested and amplified through two additional rounds of infections. Then 400 ml of the resulting virus stock was used to infect 10L of Sf9 cells at a density of 2×10^6 cells/ml. Cell pellets were harvested 48 hours post infection and were lysed by freeze-thaw, homogenization and sonication in binding buffer (25 mM Tris pH7.6, 1 M NaCl, 10 mM imidazole, 0.5 mM TCEP) plus 0.1% Triton X-100 and complete protease inhibitor cocktail. The lysate was spun and the supernatant was purified with a HisTrap FF crude and a Superdex 200 pg column.
TBK1 inhibition is determined using a 384 well plate format in buffer containing 20 mM Hepes, pH 7.4, 10 mM MgCl2, 1 mM EDTA, 0.01% Brij-L23, 1 mM DTT. Each test compound is prepared in DMSO using 2.5-fold serial dilutions for 11 data points, which are added to the buffer so that each dilution contains 1% DMSO. To each well is added 2 μL of 1 μm 5FAM-DRHDSGLDSMKDE-NH2 (in buffer), 2 μL of diluted test compound (1% DMSO in buffer), and 5 μL of 3 nM TBK1 and 25 μM ATP (in buffer). The reaction mixture is incubated at RT for 60 min, and quenched by adding 20 mM Hepes, pH 7.4, 10 mM MgCl2, 1 mM EDTA, 0.01% Brij-L23, 1 mM DTT+25 mM EDTA. To quantify the fluorescent-labeled substrate and product following reaction, the test plate is loaded on a Caliper LC-3000, which measures percent of conversion by microfluidic-based separation. Corresponding IC50 values are calculated by non-linear curve fitting of the compound concentrations and percent of inhibition to the standard IC50 equation and reported as pIC50, i.e., −log(IC50), where IC50 is the molar concentration.

The target in experiment [2] is T2, TBK1 (Homo sapiens, UniProt Q9UHD2).
T2 construct: host or cells: RA1-ISRE beta-lactamase reporter cells
T2 sequence (Q9UHD2 1-729): T1 sequence (Q9UHD2 1-729)
Nature of the experiment: Inhibition of TBK1 in Cells (TLR3 driven ISRE β-lactamase reporter assay). It is filed as cell-based. The conditions noted are these: poly IC-LMW stimulation 16 hrs; -log(EC50), EC50 molar; read-out: Inhibition of TBK1 in cells pEC50 (EC) (converted). The method, then:
TBK1 inhibition is determined using a TLR3 driven RA1-ISRE β-lacatamase reporter assay (Life Technologies). In the assay 50,000 cells/well are plated in black clear bottom 384 well plate. Each test compound is prepared in DMSO using 2.5-fold serial dilutions for 11 data points, which are then added to the media. Cells are stimulated with 0.15 mg/ml poly IC-LMW (Invivogen) for 16 hrs. Reporter activity is detected using the LiveBLAzer-FRET B/G CCF4-AM substrate (Life Technologies) and the plate is read using the Spectramax M5 instrument. Corresponding EC50 values are calculated by non-linear curve fitting of the compound concentrations and percent of inhibition to the standard EC50 equation and reported as pEC50, i.e., −log(EC50), where EC50 is the molar concentration.

Turning to `O=C(NC1COC1)c1nc(-c2ccc3nc(NC(=O)C4CC4)cn3c2)cs1` [Example 122, 4-(2-(cyclopropanecarboxamido)imidazo[1,2-a]pyridin-6-yl)-N-(oxetan-3-yl)thiazole-2-carboxamide], the IC50 in experiment [1] was 126 nM. Also, the EC50 in experiment [2] was 3720 nM.

In the case of `O=C(NC1CCOCC1)c1cc(-c2ccc3nc(NC(=O)C4CC4)cn3c2)cs1` [Example 66, 4-(2-(cyclopropanecarboxamido)imidazo[1,2-a]pyridin-6-yl)-N-(tetrahydro-2H-pyran-4-yl)thiophene-2-carboxamide], the IC50 in experiment [1] is 100 nM. Besides, the EC50 in experiment [2] is 2040 nM.

Take `O=C(CF)Nc1cn2cc(-c3csc(C(=O)NCC(F)(F)F)c3)ccc2n1` [Example 16, 4-(2-(2-fluoroacetamido)imidazo[1,2-a]pyridin-6-yl)-N-(2,2,2-trifluoroethyl)thiophene-2-carboxamide]: the IC50 in experiment [1] was 79.4 nM. Besides, the EC50 in experiment [2] was 1050 nM.

`O=C(NCC(F)(F)F)c1nc(-c2ccc3nc(NC(=O)C4CC4)cn3n2)cs1` [Example 21, 4-(2-(cyclopropanecarboxamido)imidazo[1,2-b]pyridazin-6-yl)-N-(2,2,2-trifluoroethyl)thiazole-2-carboxamide]: the IC50 in experiment [1] was 50.1 nM. The EC50 in experiment [2] is 3390 nM.

Turning to `N#CCC(=O)Nc1cn2cc(-c3csc(C(=O)NCC(F)(F)F)c3)ccc2n1` [Example 17, 4-(2-(2-cyanoacetamido)imidazo[1,2-a]pyridin-6-yl)-N-(2,2,2-trifluoroethyl)thiophene-2-carboxamide], in experiment [1], the IC50 is 79.4 nM. Besides, the EC50 in experiment [2] was 2950 nM.

Regarding `CC(F)(F)CNC(=O)c1cc(-c2ccc3nc(NC(=O)C4CC4)cn3c2)cs1` [Example 57, 4-(2-(cyclopropanecarboxamido)imidazo[1,2-a]pyridin-6-yl)-N-(2,2-difluoropropyl)thiophene-2-carboxamide], the IC50 in experiment [1] was 10 nM. Also, the EC50 in experiment [2] is 219 nM.

As to `O=C(Nc1cn2cc(-c3csc(C(=O)N(CCCO)CC(F)(F)F)c3)ccc2n1)C1CC1` [Example 119, 4-(2-(cyclopropanecarboxamido)imidazo[1,2-a]pyridin-6-yl)-N-(3-hydroxypropyl)-N-(2,2,2-trifluoroethyl)thiophene-2-carboxamide], the IC50 in experiment [1] is 10 nM. Besides, in experiment [2], the EC50 is 331 nM.

For the compound `O=C(Nc1cn2cc(-c3csc(C(=O)N4CCCC4CO)n3)ccc2n1)C1CC1` (stereo not shown) [Example 114, N-(6-(2-(2-(hydroxymethyl)pyrrolidine-1-carbonyl)thiazol-4-yl)imidazo[1,2-a]pyridin-2-yl)cyclopropanecarboxamide], the IC50 in experiment [1] was 158 nM. For the same compound, the EC50 in experiment [2] was 1620 nM.

For the compound `O=C(NC1CCCOC1)c1nc(-c2ccc3nc(NC(=O)C4CC4)cn3c2)cs1` (stereo in doubt) [Example 88, (S)-4-(2-(cyclopropanecarboxamido)imidazo[1,2-a]pyridin-6-yl)-N-(tetrahydro-2H-pyran-3-yl)thiazole-2-carboxamide], the IC50 in experiment [1] was 63.1 nM. Further, the EC50 in experiment [2] is 1550 nM.

`O=C(NCC(F)(F)F)c1ncc(-c2ccc3nc(NC(=O)C4CC4)cn3c2)[nH]1` [Example 50, 4-(2-(cyclopropanecarboxamido)imidazo[1,2-a]pyridin-6-yl)-N-(2,2,2-trifluoroethyl)-1H-imidazole-2-carboxamide]: the IC50 in experiment [1] was 12.6 nM. In addition, the EC50 in experiment [2] was 479 nM.

Regarding `O=C(NCC(F)F)c1nc(-c2ccc3nc(NC(=O)C4CC4)cn3n2)cs1` [Example 8, 4-(2-(cyclopropanecarboxamido)imidazo[1,2-b]pyridazin-6-yl)-N-(2,2-difluoroethyl)thiazole-2-carboxamide], in experiment [1], the IC50 is 200 nM. The EC50 in experiment [2] was 9120 nM.

For the compound `COCCNC(=O)c1cc(-c2ccc3nc(NC(=O)C4CC4)cn3c2)cs1` [Example 73, 4-(2-(cyclopropanecarboxamido)imidazo[1,2-a]pyridin-6-yl)-N-(2-methoxyethyl)thiophene-2-carboxamide], in experiment [1], the IC50 was 63.1 nM. In addition, the EC50 in experiment [2] is 1660 nM.

`O=C(Nc1cn2cc(-c3cc(C(=O)N4CCC(F)CC4)[nH]n3)ccc2n1)C1CC1` [Example 105, N-(6-(5-(4-fluoropiperidine-1-carbonyl)-1H-pyrazol-3-yl)imidazo[1,2-a]pyridin-2-yl)cyclopropanecarboxamide]: the IC50 in experiment [1] is 316 nM. For the same compound, the EC50 in experiment [2] is 5370 nM.

Turning to `C[C@@H](NC(=O)c1cc(-c2ccc3nc(NC(=O)C4CC4)cn3c2)n[nH]1)C(F)(F)F` [Example 104, (R)-3-(2-(cyclopropanecarboxamido)imidazo[1,2-a]pyridin-6-yl)-N-(1,1,1-trifluoropropan-2-yl)-1H-pyrazole-5-carboxamide], the IC50 in experiment [1] is 5.01 nM. In addition, the EC50 in experiment [2] is 166 nM.

On to `N[C@H]1CCCC(F)(F)[C@@H]1NC(=O)c1cc(-c2ccc3nc(NC(=O)C4CC4)cn3c2)cs1` [Example 126, N-((1R,6S)-6-amino-2,2-difluorocyclohexyl)-4-(2-(cyclopropanecarboxamido)imidazo[1,2-a]pyridin-6-yl)thiophene-2-carboxamide], for which the IC50 in experiment [1] is 10 nM. For the same compound, the EC50 in experiment [2] was 55 nM.

With `O=C(NC1CCCC1=O)c1cc(-c2ccc3nc(NC(=O)C4CC4)cn3c2)cs1` (stereo not shown) [Example 85, 4-(2-(cyclopropanecarboxamido)imidazo[1,2-a]pyridin-6-yl)-N-(2-oxocyclopentyl)thiophene-2-carboxamide], the IC50 in experiment [1] is 100 nM. In experiment [2], the EC50 was 4070 nM.

Take `O=C(N[C@H]1CCOC1)c1nc(-c2ccc3nc(NC(=O)C4CC4)cn3c2)cs1` [Example 87, (S)-4-(2-(cyclopropanecarboxamido)imidazo[1,2-a]pyridin-6-yl)-N-(tetrahydrofuran-3-yl)thiazole-2-carboxamide]: the IC50 in experiment [1] is 63.1 nM. Also, in experiment [2], the EC50 was 2880 nM.

Take `O=C(NCC(F)F)c1ccn(-c2ccc3nc(NC(=O)C4CC4)cn3c2)n1` [Example 35, 1-(2-(cyclopropanecarboxamido)imidazo[1,2-a]pyridin-6-yl)-N-(2,2-difluoroethyl)-1H-pyrazole-3-carboxamide]: in experiment [1], the IC50 was 79.4 nM. Moreover, the EC50 in experiment [2] was 5250 nM.

With `O=C(NC1COCC1O)c1nc(-c2ccc3nc(NC(=O)C4CC4)cn3c2)cs1` (stereo not shown) [Example 109, 4-(2-(cyclopropanecarboxamido)imidazo[1,2-a]pyridin-6-yl)-N-(4-hydroxytetrahydrofuran-3-yl)thiazole-2-carboxamide], the IC50 in experiment [1] was 63.1 nM. Further, in experiment [2], the EC50 was 3240 nM.

As to `O=C(NC1CCCC1(F)F)c1nc(-c2ccc3nc(NC(=O)C4CC4)cn3c2)cs1` (stereo not shown) [Example 90, 4-(2-(cyclopropanecarboxamido)imidazo[1,2-a]pyridin-6-yl)-N-(2,2-difluorocyclopentyl)thiazole-2-carboxamide], in experiment [1], the IC50 is 39.8 nM. Further, the EC50 in experiment [2] was 1020 nM.
